Results from US20120196057A1 (priority 2008, published 2012).
“Also recorded” adds a separate entry of the source.

What was measured:
[1] = tested on: gastrocnemius muscle; experiment: Gene chip analysis in hindlimb unloading (tail suspension) skeletal muscle atrophy model; type: in vivo, BalbC mice; details: for Differentially expressed probe sets for genes between HU and HU + treatment group: 50 μg/kg/bw (combo 50+50) by gavage twice, 7 days hindlimb unloading, Affymetrix Mouse 430-2; for Expression of Myosin, light chain kinase (Mylk) / Expression of Tropomyosin 1 (Tpm1) / Expression of Titin (Tnt) / Expression of Myomesin 1 (Myom 1) / Number of differentially expressed probe sets also differentially expressed in 25-OH D3+Vitamin D3 group / Share of differentially expressed probe sets also differentially expressed in 25-OH D3+Vitamin D3 group: gastrocnemius muscle; for Expression of Myosin, light chain kinase (Mylk): HU control 749; for Expression of Tropomyosin 1 (Tpm1): HU control 1179; for Expression of Titin (Tnt): HU control 11353; for Expression of Myomesin 1 (Myom 1): HU control 84697; for Differentially expressed muscle genes compared to HU: selected skeletal muscle genes, list wrapped over table lines; for Number of differentially expressed probe sets also differentially expressed in 25-OH D3+Vitamin D3 group / Share of differentially expressed probe sets also differentially expressed in 25-OH D3+Vitamin D3 group: vs HU control
Source text: Initially this model was established in rats for simulating spaceflight in humans and is commonly used in other scientific fields to study the loss of skeletal muscle mass or bone. The results are considered indicative of human conditions such as sarcopenia (degenerative loss of skeletal muscle mass and strength during the process of ageing) or immobilization of skeletal muscle (e.g. after prolonged bed rest due to fractures, surgery or trauma). Methods For our study, nine month old BalbC female mice were randomized at the beginning of the study into four groups with 10 animals per group • 1. […] The animals were placed in special cages for duration of seven days; all mice were housed separately and had free access to feed and water ad libidum. All animals were treated twice by gavage at the beginning of the experiment and 3 hours before the section: 1. the control group received vehicle (gelatine) […] At the end of the study the gastrocnemius muscle was taken out and directly frozen in liquid nitrogen for further analysis. […] Total RNA was isolated using the commonly used Trizol protocol. The RNA was quantified by using spectrophotometric analysis. The integrity of total RNA samples was also assessed qualitatively on an Agilent 2100 Bioanalyzer. RNA was then prepared for the one cycle cDNA synthesis. A poly-A RNA control is used for this step to provide exogenous positive controls to monitor the entire eukaryotic target labelling process. The first cDNA synthesis is done, and after the second strand cDNA synthesis the cDNA is cleaned up of double-stranded cDNA. A biotin labelled cRNA is then synthesised, cleaned up and quantified using a spectrophotometer at 260/280 nm. It is important that cRNA target is fragmented before hybridization onto a GeneChip probe arrays to obtain optimal assay sensitivity. After fragmentation the probes are hybridized on the chips (Affymetrix Mouse 430-2 chips). The chips are washed and stained in the fluidics station of Affymetrix and scanned in the gene chip scanner. The data is then transferred from the scanner for further analysis using software from Genedata (Expressionist 5.0: […] Analyst). Data interpretation and pathway analysis was done with the online version of the GeneGo Metacore package ([…] evaluates microarray data for quality issues and flags problematic measurements. It provides a set of normalization algorithms and validated condensing methods to automatically pre-process and summarize raw microarray data for subsequent statistical analysis.

[2] = Clinical trial: plasma 25-OH D after single oral bolus of 25-OH D3, Vitamin D3 or both; type: in vivo, human; details: single oral bolus 140 μg (combo 140 μg + 140 μg)
Source text: Each group included five subjects. They are followed for four months in Zurich, Switzerland during the winter.
Equal quantities of both substances were investigated. […] As the maximum pre-existing baseline concentration of 25-OH D will be 50 nmol/L, it is not anticipated that subjects will approach the range where disturbance in Ca^2+ homeostasis has been observed.
Each dosage is consumed orally at breakfast. The duration of the study is four months for the “Daily” and “Weekly” groups. Subjects enrolled in the “Bolus” group consume orally a single dosage at the second study visit and are further followed-up for four months.

[3] = ingestion of 250 μg/day as a dietary supplement; cited from earlier work

| Compound | Differentially expressed probe sets for genes between HU and HU + treatment group [1] | Expression of Myosin, light chain kinase (Mylk) [1] | Expression of Tropomyosin 1 (Tpm1) [1] | Expression of Titin (Tnt) [1] | Expression of Myomesin 1 (Myom 1) [1] | Differentially expressed muscle genes compared to HU [1] | Number of differentially expressed probe sets also differentially expressed in 25-OH D3+Vitamin D3 group [1] | Share of differentially expressed probe sets also differentially expressed in 25-OH D3+Vitamin D3 group [1] | Time period with increase in plasma 25-OH D levels by at least 30 nmol/L [2] | Blood concentration of 25-hydroxyvitamin D resulting from ingestion [3] |
| --- | --- | --- | --- | --- | --- | --- | --- | --- | --- | --- |
| C=C1CC[C@H](O)C/C1=C/C=C1\CCC[C@]2(C)[C@@H]([C@H](C)CCCC(C)C)CC[C@@H]12 [Vitamin D3, cholecalciferol] | 385 | 786 | 2199 | 11354 | 99099 | Desmin; myoneurin; tropomyosin 1, alpha; tropomyosin 2,; also recorded: beta; X-linked myotubular myopathy gene 1 | 177 | ~46% | – | – |
| C=C1CC[C@H](O)C/C1=C/C=C1\CCC[C@]2(C)[C@@H]([C@H](C)CCCC(C)(C)O)CC[C@@H]12 [25-OH D3, 25-hydroxyvitamin D3] | 1263 | 994 | 2110 | 13786 | 105393 | alkali, smooth muscle and non-muscle; myosin, light; also recorded: polypeptide kinase; myotubularin related protein 2;; also recorded: myotubularin related protein 4; myotubularin related; also recorded: protein 6; tropomyosin 2, beta; X-linked myotubular; also recorded: myopathy gene 1; also recorded: Desmin; dystonin; myocyte enhancer factor 2A;; also recorded: myoneurin; myosin VIIb; myosin, light polypeptide 6, | 769 | ~61% | 4 to 49 h | – |
| Vitamin D | – | – | – | – | – | – | – | – | no increase of that magnitude | about 200 nmol/L |
